Measured values: PMC10536132, “Arginine Gemini-Based Surfactants for Antimicrobial and Antibiofilm Applications: Molecular Interactions, Skin-Related Anti-Enzymatic Activity and Cytotoxicity” (Molecules, 2023)

How the values were obtained:
[1] = test system: Pseudomonas aeruginosa PAO1 biofilm; assay: Biofilm inhibition, crystal violet; type: cell-based; settings: P. aeruginosa PAO1, 24 h contact, 2–128 μg/mL tested
Procedure: (§1) The ability of MRSA and P. aeruginosa to form biofilms on propylene surfaces in the presence of bis-Args was determined. The two bacterial cells were kept in contact with the gemini surfactants at different concentrations from 2 to 128 μg/mL for 24 h. Then, the percentage of biofilm inhibition was determined.
(§2) Antibiofilm activity was assessed against biofilm-producing strains of methicillin-resistant Staphylococcus aureus (MRSA) ATCC 43300 and Pseudomonas aeruginosa PAO1. Biofilm inhibition and eradication capacities of the gemini surfactants were evaluated against adherent bacterial biofilms grown in 96-well microtiter plates. Bacteria were grown overnight in tryptic soy agar at 37 °C for 24 h. The bacteria were suspended in lysogeny broth with glucose (1%) at 1.5 × 10^8 CFU/mL.
(§3) Biofilm inhibition procedure: 100 μL of the gemini surfactant at different concentration values was added to each well in a 96-well microplate, then, 100 μL of the diluted bacterial suspension was added to the wells. Two-fold serial dilutions of the gemini surfactants to be tested were used (2–128 μg/mL). Microtiter plates were incubated at 37 °C for 24 h. Spent growth media was then discarded and biofilm was fixed with 150 μL methanol for 10 min. After the plates were air dried, the biofilms were stained with 50 μL of 0.1 of % crystal violet for 25 min. The plates were rinsed with water and then 150 μL of 96% ethanol containing 10% acetic acid was added to all 96-well plates to dissolve the remaining crystal violet-stained biofilm. The absorbance value was recorded at 570 nm. Each assay was performed at least three times and the results were averaged.

[2] = test system: methicillin-resistant Staphylococcus aureus (MRSA) ATCC 43300 biofilm; assay: Biofilm inhibition, crystal violet; type: cell-based; settings: 24 h contact, 2–128 μg/mL tested
Procedure: as §1, §2, §3

[3] = test system: Pseudomonas aeruginosa PAO1 biofilm; assay: Biofilm eradication, crystal violet; type: cell-based; settings: P. aeruginosa PAO1, at 32 μg/mL
Procedure: (§4) The ability of these geminis to disperse and eradicate biofilms once formed on the propylene surfaces of the microtiter plates was evaluated using the same bacterial strains. […] The susceptibility of both biofilms against the tested surfactants was similar. At a low concentration of 32 μg/mL, C3(CA)2 and C3(LA)2 were able to eradicate around 60–70% of preformed biofilm; however, at this concentration, the […] hydrophobic compound, C3(OA)2, eradicated less than 30% of biofilm. At high concentrations, the eradication percentage is similar for all alkyl chains. […] In this case, at low concentrations, there is not a clear dependence between the antibiofilm properties and the spacer; however, at a high concentration, the best effectivity was obtained for the longer spacer chains.
as §2
(§5) Biofilm eradication procedure: For mature biofilm formation, 200 μL of the diluted bacterial suspension was added to each well in a 96-well microplate and incubated at 37 °C for 24 h. The wells were gently rinsed with phosphate-buffered saline (PBS) and 200 μL of the corresponding gemini surfactant solution was added to each well and incubated again at 37 °C for 24 h. Two-fold serial dilutions of the gemini surfactant were used (4–128 μg/mL). After the plates were air dried, the biofilms were stained with 50 μL of 0.1 of % crystal violet for 25 min. The plates were rinsed with water and then 150 μL of 96% ethanol containing 10% acetic acid was added to all 96-well plates to dissolve the remaining crystal violet-stained biofilm. The absorbance value was recorded at 570 nm. Each assay was conducted at least three times and the results were averaged.

[4] = test system: methicillin-resistant Staphylococcus aureus (MRSA) ATCC 43300 biofilm; assay: Biofilm eradication, crystal violet; type: cell-based; settings: at 32 μg/mL
Procedure: as §4, §2, §5

[5] = molecular target: porcine pancreatic elastase (Sus scrofa, UniProt P00772); assay: Elastase inhibitory assay; type: biochemical; settings: 40 µL of 1000 µg/mL stock; EGCG 250 μM
Procedure, shortened: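 Porcine pancreatic elastase preincubated 15 min with diluted surfactant samples, then N-succinyl-(Ala)3-p-nitroanilide substrate added in Tris-HCl pH 8.0. Absorbance at 410 nm followed for 2 h; % inhibition from absorbance without versus with sample, in triplicate.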

bovine hyaluronidase = assay: Hyaluronidase inhibitory activity; type: biochemical; settings: negative inhibition values
Procedure, shortened: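 Bovine hyaluronidase (7900 units/mL working solution, 0.1 M acetate pH 3.6) was mixed 1:1 with surfactant in 5% DMSO for 20 min at 37 °C, then with CaCl2 (12.5 mM) for 20 min, then sodium hyaluronate (1.2 mg/mL) for 40 min. The p-dimethylaminobenzaldehyde colour was read at 585 nm. % inhibition = (A1−A2)/A1×100.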

porcine pancreatic elastase, sequence (P00772 27-266): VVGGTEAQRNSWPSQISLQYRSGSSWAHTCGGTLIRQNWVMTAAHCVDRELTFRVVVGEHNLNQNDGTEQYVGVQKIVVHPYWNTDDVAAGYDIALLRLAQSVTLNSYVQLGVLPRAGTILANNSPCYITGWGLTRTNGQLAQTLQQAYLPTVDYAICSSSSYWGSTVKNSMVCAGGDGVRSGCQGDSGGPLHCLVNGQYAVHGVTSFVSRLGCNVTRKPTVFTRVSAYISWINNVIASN

SMILES: CCCCCCCCCCCC(=O)NC(CCCNC(=N)N)C(=O)NCCCNC(=O)C(CCCNC(=N)N)NC(=O)CCCCCCCCCCC (stereo not drawn) [C3(LA)2, Bis (N^α-lauroyl arginine 1,3-propane) diamide]
- concentration that inhibits biofilm formation [1]: 32 µg/mL
- concentration that inhibits biofilm formation [2]: 32 µg/mL
- preformed biofilm eradicated [3]: 60–70%
- preformed biofilm eradicated [4]: 60–70%
- anti-elastase activity (inhibition) [5]: 17%
- increase of hyaluronidase enzymatic activity (bovine hyaluronidase): 48.3%
